# Data reported in publication PMC8050276, “Estradiol analogs attenuate autophagy, cell migration and invasion by direct and selective inhibition of TRPML1, independent of estrogen receptors” (Scientific Reports, 2021).
# “Also recorded” adds a separate entry of the source. Where two headings read alike, the source gives them in different places.
# How the values were obtained:
# hTRPML1∆NC-YFP [1] = molecular target: hTRPML1∆NC-YFP (Homo sapiens, UniProt Q9GZU1); type: cell-based
# Procedure: (§1) To identify inhibitors of TRPML1 and TRPML3, the Spectrum Collection compound library (MS Discoveries; 2000 compounds) and additional 430 bioactive compounds were screened. To this end, fluorometric Ca^2+ influx assays were performed by using the calcium dye Fluo-4/AM (Invitrogen, Thermo Fisher Scientific, Waltham, MA, USA) and a custom-made fluorescence imaging plate reader built into a robotic liquid handling station (Freedom Evo 150, Tecan, Männedorf, Switzerland). […] Screening compounds dissolved in DMSO (10 mM) were prediluted in 150 mM NaCl, 20 mM HEPES, pH 7.4, to a concentration of 200 µM. For primary screens, HEK293 stably expressing plasma membrane-targeted TRPML1 or TRPML3 were trypsinized and resuspended in cell culture medium supplemented with 4 µM Fluo-4/AM. After incubation at 37 °C for 30 min, the cell suspension was briefly centrifuged resuspended in HBS, and dispensed into black pigmented, clear-bottom 384-well microwell plates (Greiner μClear, Frickenhausen, Germany). Plates were placed into the FLIPR and fluorescence signals (excitation 470 nm, emission 515 nm) were recorded with a Zyla 5.5 camera (Andor, Belfast, UK) and the μManager software like previously described. In a first video, compound libraries were successively added to the cells with the Tecan 96-tip multichannel arm to a final concentration of 20 µM to map unspecific effects like autofluorescence or toxicity. In a second step the agonist ML-SA1 was pipetted in each well and fluorescence signals were recorded for 10 min. Analyses were done by calculating fluorescence intensities for each well and background areas with ImageJ (National Institutes of Health, Bethesda, MD, USA). Finally, the background was subtracted and the fluorescence intensities were normalized to initial intensities (F/F0). Concentration response curves were generated by the same procedure but compounds were manually prediluted in 96-well plates containing HBS, now supplemented with 0.1% bovine serum albumin. Here data was fitted to a four-parameter Hill equation to obtain Imin, Imax, IC50), and the Hill coefficient n.
# hTRPML1∆NC-YFP [2] = type: cell-based, human; settings: for TRPML1:TRPML2 fold selectivity / TRPML1:TRPML3 fold selectivity: ratio of Fluo-4 IC50 values; for TRPML isoform selectivity profile: TRPML1, 2, 3 and TPC2, Fluo-4
# Procedure: as §1
# hTRPML3 = molecular target: T1, hTRPML3 (Homo sapiens, UniProt Q8TDD5); assay: Whole-cell patch-clamp, tetracycline-inducible HEK293 hTRPML3; type: cell-based; settings: 30 µM ML-SA1, pH 7.4
# T1 construct: host or cells: HEK293, FLP-in-Tet-On, tetracycline-induced
# T1 sequence (Q8TDD5 1-553): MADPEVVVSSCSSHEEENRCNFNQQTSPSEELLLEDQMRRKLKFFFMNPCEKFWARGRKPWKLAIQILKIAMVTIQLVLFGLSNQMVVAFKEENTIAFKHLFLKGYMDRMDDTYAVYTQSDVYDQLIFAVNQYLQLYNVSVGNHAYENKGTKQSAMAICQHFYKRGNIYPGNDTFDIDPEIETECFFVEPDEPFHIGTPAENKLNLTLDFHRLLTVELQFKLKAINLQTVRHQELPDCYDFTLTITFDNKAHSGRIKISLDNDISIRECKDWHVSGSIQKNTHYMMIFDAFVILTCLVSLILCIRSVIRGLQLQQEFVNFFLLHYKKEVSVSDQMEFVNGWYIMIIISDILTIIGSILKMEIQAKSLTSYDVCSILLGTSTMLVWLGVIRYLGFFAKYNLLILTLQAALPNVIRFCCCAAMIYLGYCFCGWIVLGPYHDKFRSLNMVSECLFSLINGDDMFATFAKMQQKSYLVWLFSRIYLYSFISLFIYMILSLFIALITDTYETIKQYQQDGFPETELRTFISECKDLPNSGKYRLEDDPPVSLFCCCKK
# Procedure: For whole-cell patch-clamp experiments tetracycline-inducible hTRPML1L15/16A, L577/578A, hTRPML2 and TRPML3 HEK293 cell lines were used, generated by ICAGEN Inc. using the FLP-in-Tet-On system. Experiments were performed as described previously[20],[42]. In brief, cells were cultured on coverslips (Fisherbrand, Fisher Scientific) in complete DMEM medium with 10% FBS (Thermo Fisher). HEK293 cells expressing the desired channel protein were patch-clamped after overnight induction with tetracycline (1 µg/mL). […] The pipette solution contained (mM) 122 Cs‐methanosulfonate, 4 NaCl, 10 EGTA, 2 Na-ATP, 2 MgCl2 and 20 HEPES, pH 7.2 (with CsOH). The standard bath solution contained (mM) 153 NaCl, 5 KCl, 2 CaCl2, 1 MgCl2, 20 HEPES and 10 Glucose (pH 7.4 with NaOH). The low pH bath solution contained (mM) 150 Na-Gluconate, 5 KCl, 2 CaCl2, 1 MgCl2, 10 glucose, 10 HEPES and 10 MES (pH 4.6). Whole‐cell currents were recorded using a Multiclamp 700B amplifier (Molecular Devices) with low‐pass filtering at 3 kHz. The currents were digitized at a sampling frequency of 10 kHz using BNC-2110 and PCI-6221 with NI-DAQmx (National Instruments) and stored directly to a hard drive. Current recording was done with WinWCP5.2.7 (University of Strathclyde, UK) software, and analysis was done with the help of a customized Igor pro program (WaveMetrics).
# hTPC2L11A/L12A-RFP = molecular target: T2, hTPC2L11A/L12A-RFP (Homo sapiens, UniProt Q8NHX9, L11A/L12A); assay: Single cell Fura-2 calcium imaging, HEK293 stably expressing hTPC2L11A/L12A-RFP; type: cell-based; settings: compound alone or 10 µM after TPC2-A1-N (10 µM)
# T2 construct: expressed in transfected cells
# Procedure: Single cell Ca^2+ imaging experiments were performed using Fura-2 as previously described. HEK293 cells stably expressing hTRPML1∆NC-YFP, hTRPML2-YFP, hTPPML3-YFP or hTPC2L11A/L12A-RFP (22, 24) were cultured at 37 °C with 5% of CO2 in Dulbecco’s modified Eagle medium (Thermo Fisher), supplemented with 10% fetal bovine serum, 100 U/mL penicillin, and 0.1 mg/mL streptomycin. Cells were plated onto poly-L-lysine (sigma)-coated glass coverslips and grown for 2–3 days. For Ca^2+ imaging experiments cells were loaded for 1 h at room temperature with Fura-2 AM (4.0 µM) and 0.005% (v/v) pluronic acid (both from Thermo Fisher) in HEPES-buffered solution (HBS) comprising 138 mM NaCl, 6 mM KCl, 2 mM MgCl2, 2 mM CaCl2, 10 mM HEPES, and 5.5 mM D-glucose (adjusted to pH 7.4 with NaOH). After loading, cells were washed with HBS and mounted in an imaging chamber. All recordings were performed in HBS. Ca^2+ imaging was performed using a Leica DMi8 live cell microscope. Fura-2 was excited at 340 nm/380 nm. Emitted fluorescence was captured using 515 nm long-pass filter. Compounds were pre diluted in DMSO and stored as 10 mM stock solutions at − 20 °C, not exceeding three months. Working solutions were prepared directly before using by dilution with HBS.
# [3] = read-out: TRPML1 IC50, Fluo-4, 5 µM ML-SA1, Fig. 2a/4, Table S1
# Sequence of hTRPML1∆NC-YFP (Homo sapiens, UniProt Q9GZU1) (Q9GZU1 whole entry): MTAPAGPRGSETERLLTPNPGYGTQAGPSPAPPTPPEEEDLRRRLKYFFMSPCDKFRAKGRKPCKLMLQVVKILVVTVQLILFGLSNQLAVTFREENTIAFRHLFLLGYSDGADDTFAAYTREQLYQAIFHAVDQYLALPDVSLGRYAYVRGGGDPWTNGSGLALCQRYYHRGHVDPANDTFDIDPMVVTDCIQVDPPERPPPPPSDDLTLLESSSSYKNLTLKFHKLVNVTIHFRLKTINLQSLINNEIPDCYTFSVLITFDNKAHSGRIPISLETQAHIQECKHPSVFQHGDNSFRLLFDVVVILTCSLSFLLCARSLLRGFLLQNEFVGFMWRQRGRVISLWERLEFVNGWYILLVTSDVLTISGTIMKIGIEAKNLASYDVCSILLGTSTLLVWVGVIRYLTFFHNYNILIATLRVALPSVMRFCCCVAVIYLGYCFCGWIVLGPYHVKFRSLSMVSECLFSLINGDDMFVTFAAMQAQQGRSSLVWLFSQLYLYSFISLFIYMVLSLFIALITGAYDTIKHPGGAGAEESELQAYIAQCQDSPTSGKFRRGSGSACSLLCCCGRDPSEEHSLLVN
# T2 sequence (Q8NHX9 whole entry L11A/L12A): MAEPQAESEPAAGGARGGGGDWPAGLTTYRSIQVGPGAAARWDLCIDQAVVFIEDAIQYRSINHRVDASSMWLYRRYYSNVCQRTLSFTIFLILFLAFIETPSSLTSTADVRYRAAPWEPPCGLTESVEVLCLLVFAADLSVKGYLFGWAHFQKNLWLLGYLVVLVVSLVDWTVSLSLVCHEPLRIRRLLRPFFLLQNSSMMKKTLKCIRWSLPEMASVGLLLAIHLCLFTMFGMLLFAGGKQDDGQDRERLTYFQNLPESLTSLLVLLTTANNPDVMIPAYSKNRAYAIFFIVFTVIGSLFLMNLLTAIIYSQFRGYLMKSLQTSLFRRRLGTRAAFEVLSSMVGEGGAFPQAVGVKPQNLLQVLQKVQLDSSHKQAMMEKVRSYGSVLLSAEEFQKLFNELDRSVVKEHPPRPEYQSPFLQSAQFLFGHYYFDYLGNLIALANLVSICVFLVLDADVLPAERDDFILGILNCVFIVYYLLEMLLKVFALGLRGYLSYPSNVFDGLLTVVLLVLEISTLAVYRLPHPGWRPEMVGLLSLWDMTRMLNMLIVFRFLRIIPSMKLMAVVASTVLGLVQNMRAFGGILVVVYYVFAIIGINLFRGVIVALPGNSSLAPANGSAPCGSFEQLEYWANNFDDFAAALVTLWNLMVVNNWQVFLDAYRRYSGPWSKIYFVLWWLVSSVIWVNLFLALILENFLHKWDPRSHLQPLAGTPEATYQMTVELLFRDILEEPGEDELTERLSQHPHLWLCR
Compound,"inhibitory effect on TRPML1 (hTRPML1∆NC-YFP [1]; 12.5 µM compound, 5 µM ML-SA1, Fig. 1f)","IC50 (hTRPML1∆NC-YFP [1]; read-out: TRPML1 IC50, concentration-response retest of screening hits and steroids, Fluo-4, 5 µM ML-SA1, Fig. 1b-e, S1)","primary screen result (hTRPML1∆NC-YFP [2]; 20 µM compound, 5 µM ML-SA1, TRPML1 and TRPML3)","TRPML1 versus TRPML3 selectivity (hTRPML1∆NC-YFP [2]; Fluo-4, TRPML1 vs TRPML3, 5 µM ML-SA1)",TRPML1:TRPML2 fold selectivity (hTRPML1∆NC-YFP [2]),TRPML1:TRPML3 fold selectivity (hTRPML1∆NC-YFP [2]),"block of TRPML3, whole-cell patch-clamp (hTRPML3)","effect on hTPC2, Fura-2 (hTPC2L11A/L12A-RFP)",IC50 (hTRPML1∆NC-YFP [1]; [3]),TRPML isoform selectivity profile (hTRPML1∆NC-YFP [2])
"COc1ccc2c(c1)CC[C@@H]1[C@@H]2CC[C@]2(C)[C@@H](O)CC[C@@H]12 [EDME, 17β-estradiol methyl ether]",completely blocks TRPML1,500 nM,TRPML1 selective hit,highly TRPML1-selective,9.14 fold,30.47 fold,no block,–,–,–
C=Cc1ccc2c(c1)CC[C@@H]1[C@@H]2CC[C@]2(C)[C@@H](O)CC[C@@H]12 [PRU-10],–,–,–,–,13.17 fold,38.61 fold,–,Neither an activating nor a blocking effect,410 nM,further improved selectivity profile compared to EDME; also recorded: good TRPML isoform selectivity profile
CC(=O)c1ccc2c(c1)CC[C@@H]1[C@@H]2CC[C@]2(C)[C@@H](O)CC[C@@H]12 [PRU-12],–,–,–,–,18.86 fold,50.29 fold,–,Neither an activating nor a blocking effect,280 nM,further improved selectivity profile compared to EDME; also recorded: good TRPML isoform selectivity profile
